Measured values as given in BigSolDB 2.1.

O=C(Cn1cnnn1)N[C@@H]1C(=O)N2C(C(=O)O)=C(CSc3nncs3)CS[C@H]12
solubility (mole fraction)
Conditions | 278.15 K | 283.15 K | 288.15 K | 293.15 K | 298.15 K | 303.15 K | 308.15 K | 313.15 K
in acetone | 0.00153 | 0.00156 | 0.00161 | 0.00165 | 0.0017 | 0.00184 | 0.00193 | 0.0023
in acetonitrile | 0.000124 | 0.000137 | 0.000159 | 0.000164 | 0.000184 | 0.000219 | 0.000253 | 0.000284
in ethanol | 4.85e-05 | 5.92e-05 | 6.49e-05 | 7.26e-05 | 9.45e-05 | 0.000104 | 0.000122 | 0.000152
in ethyl acetate | 0.000188 | 0.000217 | 0.000242 | 0.0003 | 0.000342 | 0.000371 | 0.000433 | 0.00053
in isopropanol | 6.43e-05 | 6.82e-05 | 7.37e-05 | 8.59e-05 | 0.000104 | 0.000114 | 0.000134 | 0.000152
in methanol | 1.2e-05 | 1.5e-05 | 1.92e-05 | 2.43e-05 | 3.26e-05 | 4.34e-05 | 5.48e-05 | 6.84e-05
in water | 1.04e-05 | 1.27e-05 | 1.64e-05 | 1.92e-05 | 2.51e-05 | 3.24e-05 | 4.27e-05 | 5.32e-05
